pKi: −log10 of the molar value.
Target: T1, STAT5A (Homo sapiens, UniProt P42229)
T1 sequence (P42229 1-794): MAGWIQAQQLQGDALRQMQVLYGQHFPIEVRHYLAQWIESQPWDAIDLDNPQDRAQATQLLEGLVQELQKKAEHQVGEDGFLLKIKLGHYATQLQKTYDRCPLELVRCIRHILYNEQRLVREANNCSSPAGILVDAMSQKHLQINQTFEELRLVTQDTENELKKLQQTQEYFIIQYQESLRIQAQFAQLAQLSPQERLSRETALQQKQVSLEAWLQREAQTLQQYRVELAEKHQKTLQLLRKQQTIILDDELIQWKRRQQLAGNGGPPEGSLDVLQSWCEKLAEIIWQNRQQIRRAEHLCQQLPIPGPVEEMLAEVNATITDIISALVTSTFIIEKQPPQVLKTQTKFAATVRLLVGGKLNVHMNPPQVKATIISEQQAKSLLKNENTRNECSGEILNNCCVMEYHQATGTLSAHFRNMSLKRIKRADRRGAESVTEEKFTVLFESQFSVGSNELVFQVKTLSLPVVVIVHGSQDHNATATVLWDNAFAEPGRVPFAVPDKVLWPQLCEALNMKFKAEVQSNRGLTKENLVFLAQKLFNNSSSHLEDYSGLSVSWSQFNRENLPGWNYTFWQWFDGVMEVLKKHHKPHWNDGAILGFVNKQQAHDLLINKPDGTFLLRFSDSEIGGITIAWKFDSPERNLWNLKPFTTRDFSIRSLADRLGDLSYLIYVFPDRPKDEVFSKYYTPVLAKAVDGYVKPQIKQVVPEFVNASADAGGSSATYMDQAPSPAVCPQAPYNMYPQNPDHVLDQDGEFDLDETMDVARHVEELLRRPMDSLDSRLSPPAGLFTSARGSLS
Assay: Fluorescence polarization (FP) binding assay, STAT5A
Details: FP competition, 5 nM fluorescein-labeled tracer, 200 nM protein, PBS pH7.4
Description: Evaluation of the activity of the inhibitors may be accomplished by fluorescence polarization (FP) experiments. A representative general protocol is the following:
Fluorescence polarization (FP) experiments are performed in black round-bottom plates using the CLARIOstar microplate reader. To each well, fluorescein-labeled tracer and STAT5 or STAT6 protein are added in assay buffer. […] The inhibition constants are determined as the concentration of the STAT5 or STAT6 at which 50% of the ligand is bound.
Fluorescence polarization (FP) experiments were performed in 96-well, black round-bottom plates (Microfluor 2, Fisher Scientific) using the CLARIOstar microplate reader (BMG Labtech). To each well, 5 nM of fluoresceinlabeled tracer and 200 nM of STAT5 and/or STAT6 protein were added to a final volume of 100 μl in the assay buffer (PBS pH7.4+0.01% BGG+0.01% Tween-20, 2 mM DTT). The plate was mixed on a shaker for 15 m and incubated at room temperature for 1 h to reach equilibrium. […] All experimental data were analyzed using Prism 8.0 software (GraphPad Software), and the inhibition constants were determined by nonlinear curve fitting as the concentration of the STAT5 and/or STAT6 at which 50% of the ligand is bound.

pKi | Structure (SMILES)
5.00 to 6.00 | CC(C)(C)[C@H](NC(=O)c1cc2cc(C(F)(F)P(=O)(O)O)ccc2s1)C(=O)N1CCC[C@H]1C(=O)Nc1nccs1 [Compound 247, ((2-(((S)-3,3-dimethyl-1-oxo-1-((S)-2-(thiazol-2-ylcarbamoyl)pyrrolidin-1-yl)butan-2-yl)carbamoyl)benzo[b]thiophen-5-yl)difluoromethyl)phosphonic acid]
< 5.00 | CC(C)(C)[C@H](NC(=O)c1cc2cc(C(F)(F)P(=O)(O)O)ccc2s1)C(=O)N1CCC[C@H]1C(=O)Nc1ncc(CO)s1 [Compound 248, (difluoro(2-(((S)-1-((S)-2-((5-(hydroxymethyl)thiazol-2-yl)carbamoyl)pyrrolidin-1-yl)-3,3-dimethyl-1-oxobutan-2-yl)carbamoyl)benzo[b]thiophen-5-yl)methyl)phosphonic acid]
5.00 to 6.00 | CC(C)(C)[C@H](NC(=O)c1cc2cc(C(F)(F)P(=O)(O)O)ccc2s1)C(=O)N1CCC[C@H]1C(=O)Nc1ncc(C2CCOCC2)s1 [Compound 249, ((2-(((S)-3,3-dimethyl-1-oxo-1-((S)-2-((5-(tetrahydro-2H-pyran-4-yl)thiazol-2-yl)carbamoyl)pyrrolidin-1-yl)butan-2-yl)carbamoyl)benzo[b]thiophen-5-yl)difluoromethyl)phosphonic acid]
< 5.00 | CC(C)(C)[C@H](NC(=O)c1cc2cc(C(F)(F)P(=O)(O)O)ccc2s1)C(=O)N1CCC[C@H]1C(=O)Nc1ncc(-c2cc3ccccc3[nH]2)s1 [Compound 250, ((2-(((S)-1-((S)-2-((5-(1H-indol-2-yl)thiazol-2-yl)carbamoyl)pyrrolidin-1-yl)-3,3-dimethyl-1-oxobutan-2-yl)carbamoyl)benzo[b]thiophen-5-yl)difluoromethyl)phosphonic acid]
< 5.00 | CC(C)c1cnc(NC(=O)[C@@H]2CCCN2C(=O)[C@@H](NC(=O)c2cc3cc(C(F)(F)P(=O)(O)O)ccc3s2)C(C)(C)C)s1 [Compound 251, (difluoro(2-(((S)-1-((S)-2-((5-isopropylthiazol-2-yl)carbamoyl)pyrrolidin-1-yl)-3,3-dimethyl-1-oxobutan-2-yl)carbamoyl)benzo[b]thiophen-5-yl)methyl)phosphonic acid]
< 5.00 | CC(C)(C)c1cnc(NC(=O)[C@@H]2CCCN2C(=O)[C@@H](NC(=O)c2cc3cc(C(F)(F)P(=O)(O)O)ccc3s2)C(C)(C)C)s1 [Compound 252, ((2-(((S)-1-((S)-2-((5-(tert-butyl)thiazol-2-yl)carbamoyl)pyrrolidin-1-yl)-3,3-dimethyl-1-oxobutan-2-yl)carbamoyl)benzo[b]thiophen-5-yl)difluoromethyl)phosphonic acid]
< 5.00 | CCCc1cnc(NC(=O)[C@@H]2CCCN2C(=O)[C@@H](NC(=O)c2cc3cc(C(F)(F)P(=O)(O)O)ccc3s2)C(C)(C)C)s1 [Compound 253, ((2-(((S)-3,3-dimethyl-1-oxo-1-((S)-2-((5-propylthiazol-2-yl)carbamoyl)pyrrolidin-1-yl)butan-2-yl)carbamoyl)benzo[b]thiophen-5-yl)difluoromethyl)phosphonic acid]
5.00 to 6.00 | CC(C)(C)[C@H](NC(=O)c1cc2cc(C(F)(F)P(=O)(O)O)ccc2s1)C(=O)N1CCC[C@H]1C(=O)Nc1ncc(C2CCCCC2)s1 [Compound 254, ((2-(((S)-1-((S)-2-((5-cyclohexylthiazol-2-yl)carbamoyl)pyrrolidin-1-yl)-3,3-dimethyl-1-oxobutan-2-yl)carbamoyl)benzo[b]thiophen-5-yl)difluoromethyl)phosphonic acid]
6.00 to 7.00 | CC(C)(C)[C@H](NC(=O)c1cc2cc(C(F)(F)P(=O)(O)O)ccc2s1)C(=O)N1CCC[C@H]1C(=O)Nc1ncc(-c2ccccc2)s1 [Compound 255, ((2-(((S)-3,3-dimethyl-1-oxo-1-((S)-2-((5-phenylthiazol-2-yl)carbamoyl)pyrrolidin-1-yl)butan-2-yl)carbamoyl)benzo[b]thiophen-5-yl)difluoromethyl)phosphonic acid]
5.00 to 6.00 | Cc1ccccc1-c1cnc(NC(=O)[C@@H]2CCCN2C(=O)[C@@H](NC(=O)c2cc3cc(C(F)(F)P(=O)(O)O)ccc3s2)C(C)(C)C)s1 [Compound 256, ((2-(((S)-3,3-dimethyl-1-oxo-1-((S)-2-((5-(o-tolyl)thiazol-2-yl)carbamoyl)pyrrolidin-1-yl)butan-2-yl)carbamoyl)benzo[b]thiophen-5-yl)difluoromethyl)phosphonic acid]
5.00 to 6.00 | Cc1cccc(-c2cnc(NC(=O)[C@@H]3CCCN3C(=O)[C@@H](NC(=O)c3cc4cc(C(F)(F)P(=O)(O)O)ccc4s3)C(C)(C)C)s2)c1 [Compound 257, ((2-(((S)-3,3-dimethyl-1-oxo-1-((S)-2-((5-(m-tolyl)thiazol-2-yl)carbamoyl)pyrrolidin-1-yl)butan-2-yl)carbamoyl)benzo[b]thiophen-5-yl)difluoromethyl)phosphonic acid]
< 5.00 | Cc1ccc(-c2cnc(NC(=O)[C@@H]3CCCN3C(=O)[C@@H](NC(=O)c3cc4cc(C(F)(F)P(=O)(O)O)ccc4s3)C(C)(C)C)s2)cc1 [Compound 258, ((2-(((S)-3,3-dimethyl-1-oxo-1-((S)-2-((5-(p-tolyl)thiazol-2-yl)carbamoyl)pyrrolidin-1-yl)butan-2-yl)carbamoyl)benzo[b]thiophen-5-yl)difluoromethyl)phosphonic acid]
5.00 to 6.00 | CC(C)(C)[C@H](NC(=O)c1cc2cc(C(F)(F)P(=O)(O)O)ccc2s1)C(=O)N1CCC[C@H]1C(=O)Nc1ncc(-c2ccccc2F)s1 [Compound 259, (difluoro(2-(((S)-1-((S)-2-((5-(2-fluorophenyl)thiazol-2-yl)carbamoyl)pyrrolidin-1-yl)-3,3-dimethyl-1-oxobutan-2-yl)carbamoyl)benzo[b]thiophen-5-yl)methyl)phosphonic acid]
6.00 to 7.00 | CC(C)(C)[C@H](NC(=O)c1cc2cc(C(F)(F)P(=O)(O)O)ccc2s1)C(=O)N1CCC[C@H]1C(=O)Nc1ncc(-c2cccc(F)c2)s1 [Compound 260, (difluoro(2-(((S)-1-((S)-2-((5-(3-fluorophenyl)thiazol-2-yl)carbamoyl)pyrrolidin-1-yl)-3,3-dimethyl-1-oxobutan-2-yl)carbamoyl)benzo[b]thiophen-5-yl)methyl)phosphonic acid]
5.00 to 6.00 | CC(C)(C)[C@H](NC(=O)c1cc2cc(C(F)(F)P(=O)(O)O)ccc2s1)C(=O)N1CCC[C@H]1C(=O)Nc1ncc(-c2ccc(F)cc2)s1 [Compound 261, (difluoro(2-(((S)-1-((S)-2-((5-(4-fluorophenyl)thiazol-2-yl)carbamoyl)pyrrolidin-1-yl)-3,3-dimethyl-1-oxobutan-2-yl)carbamoyl)benzo[b]thiophen-5-yl)methyl)phosphonic acid]
5.00 to 6.00 | CC(C)(C)[C@H](NC(=O)c1cc2cc(C(F)(F)P(=O)(O)O)ccc2s1)C(=O)N1CCC[C@H]1C(=O)Nc1ncc(-c2cccc(Cl)c2)s1 [Compound 262, ((2-(((S)-1-((S)-2-((5-(3-chlorophenyl)thiazol-2-yl)carbamoyl)pyrrolidin-1-yl)-3,3-dimethyl-1-oxobutan-2-yl)carbamoyl)benzo[b]thiophen-5-yl)difluoromethyl)phosphonic acid]
